Source: patent US7910623B2, “Synthesis of scabronines and analogues thereof” (Sloan-Kettering Institute for Cancer Research, priority 2008, dated 2011)
“Also recorded” adds a separate entry of the source. Like-named read-outs stand apart in the source and are kept apart here.

Columns and labels:
[1] = test system: 1321N1 human astroglial cells; details: cited from earlier work
[2] = test system: rat pheochromocytoma cells (PC-12); details: cited from earlier work
1321N1 human glial cells = assay: Biosynthesis and secretion of neurotrophic factors from 1321N1 cells treated with compound; assay type: cell-based; details: 30 μM, 48 hours
Method: (§1) The 1321N1 human astrocytoma cells were cultured in Dulbecco's modified Eagles's medium (DMEM) supplemented with 2 mM L-Glutamine and 10% fetal bovine serum (FBS). PC-12 cells were grown in F-12K medium supplemented with 15% horse serum and 2.5% FBS. For compound treatment, 1321N1 cells were incubated with compounds 2 and 8 at 30 μM for 48 hours in DMEM medium. The resulting conditioned media from the 1321N1 cells were used to culture PC-12 cell for induction of PC-12 neurite outgrowth. After 3 days incubation, PC-12 cells were washed with phosphate-buffered saline (PBS) and fixed with 4% paraformaldeyde. Neurites were observed under a phase-contrast ECLIPSE TE2000-S Nikon microscope.

PC-12 cells = assay: Neurite outgrowth of PC-12 cells cultured in compound-conditioned 1321N1 medium; assay type: cell-based, rat; details: 1321N1 medium conditioned with compound at 30 μM for 48 hours, PC-12 3 days; for neurite outgrowth of PC-12 cells: vs DMSO control
Method: as §1
The differentiation of PC-12 cells was scored as follows: cells without neurites were scored 0; cells with neurites as long as one cell body diameter were scored 1; cells with neurites 2-3 times longer than their cell body diameter were scored 2; and cells with neurites that were extremely long or forming a network were scored 3. The mean of differentiation scores were obtained from 200 cells (4 wells) under the phase-contrast microscope. Data are expressed as means±S.E.M (standard error of mean). Values represent the Means±S.E.M. for four wells.

Compound | production and excretion of nerve growth factor (NGF) [1] | production and excretion of nerve growth factor (NGF) ([1]; listed as scabronine G) | neuronal differentiation of PC-12 cells [2] | biosynthesis and secretion of neurotrophic factors (1321N1 human glial cells) | neurite outgrowth of PC-12 cells compared with compound 2 or purified NGF (50 ng/mL) (PC-12 cells) | neurite outgrowth of PC-12 cells (PC-12 cells)
CC(C)C1=C2[C@H]3CC=C(C=O)CC(=O)[C@]3(C)CC[C@@]2(C(=O)O)CC1 [Compound 1, Scabronine G] | induce the production and excretion of nerve growth factor (NGF) | induces the production and excretion of nerve growth factor (NGF) | dramatic neuronal differentiation |  |  | 
COC(=O)[C@]12CCC(C(C)C)=C1[C@H]1CC=C(C=O)CC(=O)[C@]1(C)CC2 [Compound 2, Scabronine G Methyl Ester] |  |  | dramatic neuronal differentiation | effectively enhanced the biosynthesis and secretion of neurotrophic factors | comparable to those produced by direct exposure of PC-12 cells to purified NGF; also recorded: same degree of neurite outgrowth as that of 50 ng/mL of NGF | significant neurite outgrowth; also recorded: significantly induced neurite outgrowth
COC(=O)[C@]12CCC(C(C)C)=C1[C@H]1CCC(C=O)=CC(=O)[C@]1(C)CC2 [Compound 8] |  |  |  |  | greater activity as evidenced by increased neurite length; also recorded: comparable to those produced by direct exposure of PC-12 cells to purified NGF; also recorded: greater potency than compound 2 | significantly induced neurite outgrowth
